Literature values in patent publication US10596205B2, “Topical medicament for skin and mucosal injuries” (REV PHARMA Corp., priority 2018, dated 2020).

Columns and labels:
[1] = tested on: biofilm; details: animals, diet rich in the fatty acids
[2] = tested on: Gram-positive microorganisms; details: in vitro study
[3] = tested on: S. Mutans biofilm; details: for Biofilm biomass / Acidogenicity of the biofilm (pH drops): 10% sucrose then free fatty acid; for Acidogenicity of the biofilm (pH drops): compared with biofilms exposed to only 10% sucrose; for Enamel demineralization induced by sucrose: biofilms treated with the fatty acids

Row | SMILES | Quantity of bacteria in biofilm [1] | Bacteriostatic effect [2] | Biofilm biomass [3] | Acidogenicity of the biofilm (pH drops) [3] | Enamel demineralization induced by sucrose [3]
1 | CCCCCCCCCCCC(=O)O [Lauric acid] | lower quantity of bacteria | highly bacteriostatic |  |  | 
2 | CCCCC/C=C\C/C=C\CCCCCCCC(=O)O [linoleic, linoleic acid] | lower quantity of bacteria |  | decline in biomass | lower pH drops | significantly lower reduction
3 | CCCCCCCC/C=C\CCCCCCCC(=O)O [oleic, oleic acid] |  |  | decline in biomass | lower pH drops | significantly lower reduction
